How the values were obtained:
mouse model of (POCD) [1] = assay: Behavioral test battery, summary of experimental results; format: in vivo, Male C57BI/6 mice
From the text: The project included experiments performed to investigate the therapeutic effects of administration of pirfenidone in a mouse model of (POCD). The model was developed during pilot work completed earlier in the study and was induced by performing a laparotomy with a 5-minute manipulation of abdominal viscera and musculature. Weights and physical condition of the animals were closely monitored throughout the study, with presurgical and daily post-surgical gavage of pirfenidone or saline administered. Behavioral testing was performed to evaluate alterations in learning and memory processes using fear conditioning, novel object recognition, and water maze paradigms. Following euthanasia on the eighth day post-surgery, hippocampal tissue was preserved and later evaluated for morphological characteristics related to microglial cell activation.
Behavioral testing was performed at various time points throughout the study as outlined in each separate section below and summarized in Table 2. All tests were recorded and analyzed by experimenters blinded to treatment. Data were obtained through a combination of experimenter scoring and use of AnyMaze™ Video Tracking System evaluation.

mouse model of (POCD) [2] = assay: Fear conditioning cued testing in laparotomy mouse model of POCD; format: in vivo, Male C57BI/6 mice; details: PSD3
From the text: To induce POCD, mice were anesthetized with isoflurane and maintained at a surgical plane of anesthesia (2-2.5%). The abdomen was shaved and cleaned/disinfected with both betadine and ethanol (70%). A 1.5 cm vertical incision was made along the midline of the abdomen, perforating the skin and the peritoneal cavity. A sterile blunt probe was inserted into the cavity, and the abdominal viscera and musculature were manipulated for five minutes. Abdominal muscles and skin were sutured, polysporin and topical lidocaine were applied to the incision site, and buprenorphine (0.1 mg/kg s.c.) was administered. Animals were placed into a clean, pre-warmed home cage for recovery and housed singly thereafter.
Fear conditioning is a commonly used test of associative learning where a […] stimulus is paired with an aversive unconditioned stimulus, resulting in a freezing response that can be subsequently quantified. Training occurred on the day prior to surgery, context testing on PSD1 (i.e., 2 days after training) and PSD3 (i.e., 4 days after training), and cued testing on PSD3 at a time point three hours after the final context test. For training and context testing, mice were placed in an operant chamber (Med Associates). For cued testing, mice were placed into a novel arena with novel external environment and scent.
Fear conditioning training was performed to generate an association between a neutral “conditional” stimulus (80 dB tone) with an aversive “unconditional” stimulus (0.4 mA shock). Before training, the system was tested to confirm proper operation of the shock and tone. During training, the testing environment was kept quiet and well controlled. Temperature and humidity levels were kept constant and the experimenter was not visible from the operant chamber, which was cleaned between animals. The training protocol was as follows: 1. Each mouse was habituated to the testing room for 20 minutes. 2. Video recording was initiated and the animal's ID card was recorded. 3. Each mouse was placed into the operant chamber and the training protocol was implemented as follows: a. 120 seconds; no stimuli (habituation to the chamber); b. 20 seconds, tone presentation (80 dB); c. 20 seconds, no stimuli (trace delay period); d. 2 seconds, foot shock (0.4 mA); e. 90 seconds, no stimuli (intertrial interval); f. repeat steps a-d followed by a final 30 second no stimuli period. 4. The mouse was returned to its home cage.
The purpose of cued testing is to evaluate cued memory for an aversive stimulus. […]
Cued testing was performed as follows: 1. […] Video recording was initiated and the animal's ID card was recorded. […]

## Cc1ccc(=O)n(-c2ccccc2)c1 [pirfenidone, 5-methyl-1-phenyl-2-(1H)-pyridone]
Mouse model of (POCD) [1]; Acute pirfenidone treated animals
  behavioral testing responses (summary): equivalent to or better than those seen in Normal Controls
Mouse model of (POCD) [1]; Chronic pirfenidone administration
  behavioral testing responses (summary): beneficial effects, particularly for recognition memory
Mouse model of (POCD) [1]; overall, pirfenidone treatment
  behavioral changes associated with memory in postoperative cognitive dysfunction (summary): protective effect
Mouse model of (POCD) [2]; Acute (400 mg/kg p.o. single dose) compared to Chronic pirfenidone and Disease controls, longer freeze times
  freezing during cued testing (overall measures): increased mean performance
Mouse model of (POCD) [2]; Acute compared to Disease Control mice, longer freeze times
  freezing time, cued testing, post-tone period: increased mean performance
Mouse model of (POCD) [2]; Chronic (400 mg/kg initial; 200 mg/kg p.o. 1x/day)
  freezing during cued testing (overall measures): performed more similarly to Disease Control
Mouse model of (POCD) [2]; Chronic vs Normal Controls, p=0.088
  freezing time, cued testing, post-tone period: trend toward decreased freezing times
